Measurements published in patent publication US4530836A, “Peptide” (Amano Pharmaceutical Co., Ltd., priority 1983, dated 1985).
Where two headings read alike, the source gives them in different places. Starred links: 1 amine or outer side, 2 acyl side, 3 side chain; linkers in the order of their positions; H or OH if unused. Non-standard residues stand in square brackets, D forms with d. Residues, ends and D or L forms follow the SMILES beside them. sY = N[C@@H](Cc1ccc(OS(=O)(=O)O)cc1)C(=O)O; Glutaryl = O=C(CCCC(=O)[*:2])[*:1]; pGlu = O=C1CC[C@@H](C(=O)O)N1; Suc = O=C(CCC(=O)[*:2])[*:1]

How the values were obtained:
gallbladder = format: in vivo, guinea pig; details: for Gallbladder contracting activity (in words): compared with CCK-8
Experimental: This test was in accordance with the method of G. Bertaccini et al. [Br. J. Pharmacol., 34, 291-310 (1968)].
Male Hartley guinea pigs (weighing 400-600 g) was anesthetized with urethane and fixed at the supine position. After laparotomy, the top of the gallbladder was clamped with a Serre-fine which was connected to a FD pickup (model: SB-IT, NIHON KOHDEN KOGYO Co., Ltd.), and the contraction was recorded on a recorder (model: PJB-3012, made by the above company) through a preamplifier (model: RUP-25, made by the above company). A standard solution and the invented peptide solutions were injected into the jugular vein, and the relative potency was determined from the peak height of the gallbladder contraction.

[1] = tested on: pancreatic external secretion; assay: Acceleration of pancreatic external secretion (method of Dockray), i.v. in rats, compared with CCK-8; format: in vivo, rat; details: male Wistar rats, 30 minutes after administration
Experimental: This test was conducted in accordance with the method of Dockray [J. Physiol., 225, 679-692 (1972)]. Male Wistar rats (weighing about 280 g) were deprived for 24 hours and under anesthesia the gastric pylorus and the duodenal side end of the common hepatic duct were ligated. A canula for collection of pancreatic juice was inserted into the duct in the retrograde fashion. The bile was led into the duodenum. Varying concentrations of the control solution (CCK-8 solution) and solutions of the invented peptides in a volume of 50 μl were administered intravenously every one hour, thus determining the increment in the secretion rate of the pancreatic juice and protein during 30 minutes after administration, wherein the amount of the whole protein secreted was determined from the ultraviolet absorbance at 280 nm of the pancreatic juice secreted.

[2] = tested on: pancreatic external secretion; assay: Pancreatic external secretion accelerating activity (protein secretion), compared with tetragastrin; format: in vivo, rat; details: rats, i.v., increment in protein secretion rate during 30 minutes (UV 280 nm); tetragastrin = 1.0
Experimental: This test was conducted in accordance with the method of Dockray [J. Physiol., 225, 679-692 (1972)]. Male Wistar rats (weighing about 280 g) were deprived for 24 hours and under anesthesia the gastric pylorus and the duodenal side end of the common hepatic duct were ligated. A canula for collection of pancreatic juice was inserted into the duct in the retrograde fashion. The bile was led into the duodenum. […] The test was conducted in the same manner as stated already. The increment in the secretion rate of the protein in the pancreatic during 30 minutes after administration of the test solution was determined from the ultraviolet absorbance at 280 nm of the pancreatic juice. The found values were compared with that of tetragastrin.

gastric acid secretion = assay: Gastric acid secretion accelerating activity in Shay rats; format: in vivo, rat; details: pylorus-ligated male Wistar rats, i.v., gastric juice 2 hours after administration; tetragastrin = 1.0
Experimental: This test was conducted with Shay rats [H, Shay et al., Gastroenterology, 5, 43 (1945)] prepared. Employing male Wistar rats (weighing 270-310 g) deprived for 24 hours, the gastric pylorus was ligated under ether-anesthesia. Immediately thereafter, the invented peptides and tetragastrin as a control were administered intravenously. Gastric juice was withdrawn 2 hours after administration, and its amount and the total amount of acid secreted were measured to determine the relative potency based on tetragastrin.

[3] = male Hartley guinea pigs, injection into jugular vein, from peak height of gallbladder contraction, CCK-8 = 100

CSCC[C@H](NC(=O)[C@H](Cc1c[nH]c2ccccc12)NC(=O)[C@@H](Cc1c[nH]c2ccccc12)NC(=O)[C@H](CCSC)NC(=O)[C@H](Cc1ccc(OS(=O)(=O)O)cc1)NC(=O)CCC(=O)O)C(=O)N[C@@H](CC(=O)O)C(=O)N[C@@H](Cc1ccccc1)C(N)=O [Compound IV, Suc-Tyr(SO3 H)-Met-D-Trp-Trp-Met-Asp-Phe-NH2] (Suc-[sY]M[dW]WMDF-NH2)
Gallbladder contracting activity (in words) (gallbladder; guinea pig): mild
Gallbladder contracting activity, relative potency (gallbladder; guinea pig, in vivo): 5.0
Increased amount of the pancreatic juice secreted (in words) [1]: comparable to that of CCK-8

CSCC[C@H](NC(=O)[C@H](Cc1ccc(OS(=O)(=O)O)cc1)NC(=O)[C@H](CC(=O)O)NC(=O)CN)C(=O)NCC(=O)N[C@@H](Cc1c[nH]c2ccccc12)C(=O)N[C@@H](CCSC)C(=O)N[C@@H](CC(=O)O)C(=O)N[C@@H](Cc1ccccc1)C(N)=O [Compound VIII, Gly-Asp-Tyr(SO3 H)-Met-Gly-Trp-Met-Asp-Phe-NH2]
Gallbladder contracting activity (in words) (gallbladder; guinea pig): comparable activities with CCK-8
Gallbladder contracting activity, relative potency (gallbladder; guinea pig, in vivo): 97
Increased amount of the pancreatic juice secreted (in words) [1]: comparable to that of CCK-8

CSCC[C@H](NC(=O)[C@H](Cc1c[nH]c2ccccc12)NC(=O)CNC(=O)[C@H](Cc1ccc(OS(=O)(=O)O)cc1)NC(=O)[C@H](C)NC(=O)CCCC(=O)O)C(=O)N[C@@H](CC(=O)O)C(=O)N[C@@H](Cc1ccccc1)C(N)=O [Compound X, Glt-Ala-Tyr(SO3 H)-Gly-Trp-Met-Asp-Phe-NH2] (Glutaryl-A[sY]GWMDF-NH2)
Pancreatic external secretion accelerating activity, relative potency [2]: 258.8
Gastric acid secretion accelerating activity, relative potency (gastric acid secretion): 6.1

CSCC[C@H](NC(=O)[C@H](Cc1ccc(OS(=O)(=O)O)cc1)NC(=O)[C@@H](N)CC(=O)O)C(=O)NCC(=O)N[C@@H](Cc1c[nH]c2ccccc12)C(=O)N[C@@H](CCSC)C(=O)N[C@@H](CC(=O)O)C(=O)N[C@@H](Cc1ccccc1)C(N)=O [CCK-8, Asp-Tyr(SO3 H)-Met-Gly-Trp-Met-Asp-Phe-NH2, reference compound]
Gallbladder contracting activity, relative potency (gallbladder; guinea pig, in vivo): 100

Suc-Phe(NHSO3 H)-Met-Gly-Trp-Met-Asp-Phe-NH2 [Compound VII]
Gallbladder contracting activity (in words) (gallbladder; guinea pig): little activity
Gallbladder contracting activity, relative potency (gallbladder; [3]): < 1.0
Increased amount of the pancreatic juice secreted (in words) [1]: no active effect

CSCC[C@H](NC(=O)[C@@H](N)Cc1c[nH]c2ccccc12)C(=O)N[C@@H](CC(=O)O)C(=O)N[C@@H](Cc1ccccc1)C(N)=O [Tetragastrin, reference compound]
Pancreatic external secretion accelerating activity, relative potency [2]: 1.0
Gastric acid secretion accelerating activity, relative potency (gastric acid secretion): 1.0

CSCC[C@H](NC(=O)[C@H](Cc1c[nH]c2ccccc12)NC(=O)CNC(=O)[C@H](Cc1ccc(OS(=O)(=O)O)cc1)NC(=O)[C@H](C)NC(=O)[C@@H]1CCC(=O)N1)C(=O)N[C@@H](CC(=O)O)C(=O)N[C@@H](Cc1ccccc1)C(N)=O [Compound XI, pGlu-Ala-Tyr(SO3 H)-Gly-Trp-Met-Asp-Phe-NH2] ([pGlu]A[sY]GWMDF-NH2)
Pancreatic external secretion accelerating activity, relative potency [2]: 50.0
Gastric acid secretion accelerating activity, relative potency (gastric acid secretion): 2.0

CSCC[C@H](NC(=O)[C@H](Cc1c[nH]c2ccccc12)NC(=O)CNC(=O)[C@H](CCSC)NC(=O)[C@H](Cc1ccc(OS(=O)(=O)O)cc1)NC(=O)CCC(=O)O)C(N)=O [Compound I, Suc-Tyr(SO3 H)-Met-Gly-Trp-Met-NH2] (Suc-[sY]MGWM-NH2)
Gallbladder contracting activity (in words) (gallbladder; guinea pig): no activity
Gallbladder contracting activity, relative potency (gallbladder; guinea pig, in vivo): 0
Increased amount of the pancreatic juice secreted (in words) [1]: no active effect

CSCC[C@H](NC(=O)[C@H](Cc1ccc(OS(=O)(=O)O)cc1)NC(=O)CCC(=O)O)C(=O)NCC(=O)N[C@@H](Cc1c[nH]c2ccccc12)C(=O)N[C@@H](CCSC)C(=O)N[C@@H](CC(=O)O)C(N)=O [Compound II, Suc-Tyr(SO3 H)-Met-Gly-Trp-Met-Asp-NH2] (Suc-[sY]MGWMD-NH2)
Gallbladder contracting activity (in words) (gallbladder; guinea pig): no activity
Gallbladder contracting activity, relative potency (gallbladder; guinea pig, in vivo): 0
Increased amount of the pancreatic juice secreted (in words) [1]: no active effect

CSCC[C@H](NC(=O)[C@H](Cc1ccc(OS(=O)(=O)O)cc1)NC(=O)[C@H](CC(=O)O)NC(=O)CCN)C(=O)NCC(=O)N[C@@H](Cc1c[nH]c2ccccc12)C(=O)N[C@@H](CCSC)C(=O)N[C@@H](CC(=O)O)C(=O)N[C@@H](Cc1ccccc1)C(N)=O [Compound IX, β-Ala-Asp-Tyr(SO3 H)-Met-Gly-Trp-Met-Asp-Phe-NH2]
Gallbladder contracting activity (in words) (gallbladder; guinea pig): comparable activities with CCK-8
Gallbladder contracting activity, relative potency (gallbladder; guinea pig, in vivo): 113
Increased amount of the pancreatic juice secreted (in words) [1]: about half of that of CCK-8

CSCC[C@H](NC(=O)[C@H](Cc1c[nH]c2ccccc12)NC(=O)[C@@H](Cc1c[nH]c2ccccc12)NC(=O)[C@H](CCSC)NC(=O)[C@H](Cc1ccc(OS(=O)(=O)O)cc1)NC(=O)CCCC(=O)O)C(=O)N[C@@H](CC(=O)O)C(=O)N[C@@H](Cc1ccccc1)C(N)=O [Compound V, Glt-Tyr(SO3 H)-Met-D-Trp-Trp-Met-Asp-Phe-NH2] (Glutaryl-[sY]M[dW]WMDF-NH2)
Gallbladder contracting activity (in words) (gallbladder; guinea pig): little activity
Gallbladder contracting activity, relative potency (gallbladder; guinea pig, in vivo): < 1.0
Increased amount of the pancreatic juice secreted (in words) [1]: comparable to that of CCK-8

Suc-Tyr(SO3 H)-Met-D-Ala-Trp-Met-Asp-Phe-NH2 [Compound III]
Gallbladder contracting activity (in words) (gallbladder; guinea pig): mild
Gallbladder contracting activity, relative potency (gallbladder; [3]): 8.7
